One assay concerns 20S proteasome subunits. Kind of assay: Competitive in situ LC-MS/MS pull-down with alkyne probe S10 and 1 (Figure S1, Table S3). Format: cell-based, human. The settings on record: 100 nM 1 versus 10 μM S10, RPMI 8226; targets: 20S proteasome subunits β5, β2i, α5, β1, β2. Here is the method:
To determine the targets of cepafungin I in human MM cells through chemoproteomics, a clickable analogue (S10) was designed with alkyne functionality distal to the reactive macrocycle (i.e., at the end of the fatty acid chain). The synthesis of S10 proceeded in a similar fashion as in Scheme 2B except with the tail fragment built from initial alkyne substitution of 6-bromo-1-hexanol. […] To identify these targets, a competitive in situ LC-MS/MS-based pull-down experiment was performed using alkyne probe S10 and 1. Following live cell treatment with just the probe or the probe together with the natural product, alkyne conjugation to biotin-azide and pull-down with streptavidin beads, the probe analogue enriched 764 proteins from RPMI 8226. […] These targets were identified as the 20S proteasome subunits β5, β2i, α5, β1, and β2, highlighting cepafungin’s exceptional selectivity for the proteasome in MM cells (Figure S1 and Table S3). […] The “i” suffix here denotes subunits of the immunoproteasome, which is produced by most cells exposed to oxidative stress or proinflammatory cytokines and also by immune cells at especially high baseline levels.[37] […]
fluorescence was read at A360ex/A460em. […]
in DMSO) or DMSO and cultured for 48 hours. Toxicity was determined using the WST-1 assay (Roche) according to the protocol of the manufacturer. […]

The next assay addresses T1, proteasome subunit β5 (Homo sapiens, UniProt P28074).
T1 construct: Following incubation of the compounds in cell culture for 6 h, cells were lysed; endogenous in cells; host or cells: RPMI 8226 (human multiple myeloma)
The settings on record: in situ in RPMI 8226 cells; preliminary analogue series, Figure 2; cited from earlier work.

SMILES strings stand for the structures.

We go through one compound from paper PMC9951290, “Comprehensive Structure–Activity Relationship Studies of Cepafungin Enabled by Biocatalytic C–H Oxidations” (ACS Central Science, 2023).

The IC50 is the concentration at which inhibition is half-maximal.

Turning to `CC(C)CCCCCC=CC=CC(=O)NC(C(=O)NC1CC(O)CCNC(=O)C=CC(C)NC1=O)C(C)O` (centres unmarked) [compound 1, cepafungin I], the “number of enriched proteins competed >50%” value with 20S proteasome subunits stood at 5 proteins. The 50% inhibitory concentration (IC50) on proteasome subunit β5 is 16 ± 1 nM.
